“And” between values parts separate entries of the source, which are not always exact repeats. Identical values can stand only once.
Experiments:
[1] = system: patients with TGCT; assay: Phase 1/2 open-label, multicenter study of vimseltinib in patients with TGCT: efficacy; type: in vivo, human; conditions: for Worst stiffness NRS response rate / Worst stiffness NRS response rate, n of responders: Week 25, response = at least a 2-point decrease; for PROMIS-PF response rate / PROMIS-PF response rate, No. of responders: Week 25, response = at least a 3-point increase; for Active ROM response rate / Active ROM response rate, No. of responders: Week 25, response = at least a 10% increase
Experimental: (§1) This is a Phase 1/2 open-label, multicenter study evaluating the safety and efficacy of vimseltinib in patients with TGCT. In Phase 1, 32 patients enrolled in three cohorts across multiple doses. In Phase 2, 66 patients enrolled in two cohorts at the recommended Phase 2 dose of 30 mg twice weekly: Cohort A (n=46) in TGCT patients with no prior anti-CSF1/CSF1R therapy (prior therapy with imatinib or nilotinib allowed); and Cohort B (n=20) in TGCT patients with prior anti-CSF1/CSF1R therapy (prior therapy with imatinib or nilotinib alone not eligible). With regards to antitumor activity and treatment duration, 93 patients were evaluable for efficacy by RECIST version 1.1 at the data cutoff date.

[2] = system: patients with TGCT; conditions: human, in vivo
Experimental: The safety population includes patients who received at least 1 dose of study drug. Severity was assessed by the investigator according to the toxicity grade described in the National Cancer Institute CTCAE v4.03 (grade 1 [mild] to grade 5 [death]). Time denotes the earliest start date of the worst grade for each TEAE; if the highest grade TEAE occurred in the first 12 months of treatment, lower grade events that occurred after 12 months were not captured in this figure. Key: AST, aspartate aminotransferase; COVID-19, coronavirus disease 2019; CPK, creatine phosphokinase; CTCAE v4.03, Common Terminology Criteria for Adverse Events version 4.03; LDH, lactate dehydrogenase; TEAE, treatment-emergent adverse event.
as §1, with “eligible).” for “eligible). With regards to antitumor activity and treatment duration, 93 patients were evaluable for efficacy by RECIST version 1.1 at the data cutoff date.”

[3] = Cohort A, Partial Response per RECIST v1.1 at Week 25 by IRR (n = 17)
[4] = Cohort A, Stable Disease per RECIST v1.1 at Week 25 by IRR (n = 22)
[5] = Cohort B (20 patients), Week 25
[6] = Cohort B, Partial Response per RECIST v1.1 at Week 25 by IRR (n = 5)
[7] = Cohort B, Stable Disease per RECIST v1.1 at Week 25 by IRR (n = 9)
[8] = Phase 2 Cohort A (n = 45), second data cutoff
[9] = Phase 2 Cohort B (n = 13), second data cutoff
[10] = Phase 2 Cohort B (n = 19), second data cutoff

`Cc1nc(-c2cnc(NC(C)C)n(C)c2=O)ccc1Oc1ccnc(-c2cnn(C)c2)c1` [Vimseltinib, 2-(isopropylamino)-3-methyl-5-(6-methyl-5-((2-(1-methyl-IH-pyrazol-4-yl)pyridin-4-yl)oxy)pyridin-2-yl)pyrimidin-4(3H)-one] was tested, and the “Worst stiffness NRS at Week 25, mean” value ([1]; Cohort A (32 patients)) was 3.1, the “PROMIS-PF at Week 25, mean” value ([1]; Cohort A (35 patients)) was 43.9 and the “BPI worst pain response rate” value ([1]; Cohort A (46 patients), Week 25) was “(50) %”. For the same compound, the “BPI worst pain response rate, No. of responders” value ([1]; Cohort A (46 patients), Week 25, 30% or greater decrease without 30% or greater increase in narcotic analgesic use) was 23 No, the Average pain responder [1, 3] was 12 (71) No. (%) and the Worst pain responder [1, 3] was 10 (59) No. (%). For the same compound, the Average pain responder [1, 4] was 12 (55) No. (%), the Worst pain responder [1, 4] was 12 (55) No. (%) and the “PROMIS-PF change from baseline, mean” value ([1]; Cohort A, Week 25) was 3.9. For the same compound, the “Worst stiffness NRS change from baseline, mean” value ([1]; Cohort A, Week 25) was −1.8, the “Worst stiffness NRS response rate” value ([1]; Cohort A) was “(66) %” and the “Worst stiffness NRS response rate, n of responders” value ([1]; Cohort A) was 21 n. The PROMIS-PF response rate ([1]; Cohort A) was “(49) %”, the “PROMIS-PF response rate, No. of responders” value ([1]; Cohort A) was 17 No and the “Active ROM response rate” value ([1]; Cohort A) was “(42) %”. For the same compound, the “Active ROM response rate, No. of responders” value ([1]; Cohort A) was 19 No, the “patients with BPI response for both worst pain and average pain” value ([1]; Cohort B (11/20), Week 25, ≥30% reduction in pain without ≥30% increase in narcotic analgesic use) was 55% and the “Worst stiffness NRS at Week 25, mean” value ([1]; Cohort B (14 patients)) was 2.6. The “PROMIS-PF at Week 25, mean” value ([1]; Cohort B (15 patients)) was 49.5, the “BPI worst pain response rate” value [1, 5] was “(55) %” and the “BPI worst pain response rate, No. of responders” value [1, 5] was 11 No. For the same compound, the Average pain responder [1, 6] was 2 (40) No. (%), the Worst pain responder [1, 6] was 2 (40) No. (%) and the Average pain responder [1, 7] was 7 (78) No. (%). The Worst pain responder [1, 7] was 7 (78) No. (%), the “BPI responders among patients with objective responses by RECIST v1.1” value ([1]; Cohort B, Week 25) was 40% and the “BPI responders among patients with stable disease” value ([1]; Cohort B, Week 25) was 78%. The “PROMIS-PF change from baseline, mean” value ([1]; Cohort B, Week 25) was 6.2, the “Worst stiffness NRS change from baseline, mean” value ([1]; Cohort B, Week 25) was −2.2 and the “patients with clinically meaningful improvements in NRS stiffness” value ([1]; Cohort B, Week 25) was 58%. For the same compound, the “patients with clinically meaningful improvements in PROMIS-PF” value ([1]; Cohort B, Week 25) was 63%, the “Worst stiffness NRS response rate” value ([1]; Cohort B) was “(71) %” and the “Worst stiffness NRS response rate, n of responders” value ([1]; Cohort B) was 10 n. The PROMIS-PF response rate ([1]; Cohort B) was “(80) %”, the “PROMIS-PF response rate, No. of responders” value ([1]; Cohort B) was 12 No and the “Active ROM response rate” value ([1]; Cohort B) was “(26) %”. For the same compound, the “Active ROM response rate, No. of responders” value ([1]; Cohort B) was 5 No, the “ORR per RECIST v1.1 by IRR” value ([1]; Phase 1 (n = 32), multiple doses, first data cutoff) was 72% and the “progression as assessed by IRR” value ([1]; Phase 2, second data cutoff) was “no patients progressed”. For the same compound, the “Active ROM at Week 25, mean” value ([1]; Phase 2 Cohort A (33 patients), second data cutoff) was 77.8%, the “ORR per RECIST v1.1 by IRR at Week 25” value ([1]; Phase 2 Cohort A (n = 45), 30 mg twice weekly, first data cutoff) was 38% and the “ORR per RECIST v1.1 by IRR” value ([1]; Phase 2 Cohort A (n = 45), 30 mg twice weekly, no prior anti-CSF1/CSF1R therapy, first data cutoff) was 64%. For the same compound, the “ORR per RECIST v1.1 by IRR” value [1, 8] was 64%, the “ORR per RECIST v1.1 by IRR at Week 25” value [1, 8] was 38% and the “ORR per TVS by IRR” value [1, 8] was 62%. The “ORR per TVS by IRR at Week 25” value [1, 8] was 51%, the “Active ROM, change from baseline at Week 25, mean (SD)” value ([1]; Phase 2 Cohort A, second data cutoff) was 19.7 (43.5) percentage points and 19.7 percentage points and the “Active ROM of the affected joint at Week 25, mean (SD)” value [1, 9] was 65.2 (37.5) % and 65.2%. The “Active ROM, change from baseline to Week 25, mean (SD)” value [1, 9] was 14.1 (27.4) percentage points and 14.1 percentage points, the “ORR per RECIST v1.1 by IRR” value ([1]; Phase 2 Cohort B (n = 16), 30 mg twice weekly, prior anti-CSF1/CSF1R therapy, first data cutoff) was 44% and the “ORR per RECIST v1.1 by IRR” value [1, 10] was 37%. For the same compound, the “ORR per RECIST v1.1 by IRR at Week 25” value [1, 10] was 26%, the “ORR per TVS by IRR” value [1, 10] was 42% and the “ORR per TVS by IRR at Week 25” value [1, 10] was 26%. For the same compound, the “symptomatic benefit across secondary efficacy measures (ORR by TVS, active range of motion, physical function, stiffness, pain)” value ([1]; Phase 2 Cohorts A and B, Week 25) was “clinically meaningful symptomatic benefit”, the “Active ROM at Week 25: patients with decrease” value ([1]; Phase 2 cohort A, FIG. 9A) was 4 n and the “Active ROM at Week 25: patients with increase from baseline” value ([1]; Phase 2 cohort A, FIG. 9A) was 23 n. The “Active ROM at Week 25: patients with no change” value ([1]; Phase 2 cohort A, FIG. 9A) was 5 n, the “Active ROM at Week 25: patients with decrease” value ([1]; Phase 2 cohort B, FIG. 9B) was 1 n and the “Active ROM at Week 25: patients with increase from baseline” value ([1]; Phase 2 cohort B, FIG. 9B) was 9 n. The “Active ROM at Week 25: patients with no change” value ([1]; Phase 2 cohort B, FIG. 9B) was 3 n, the “Grade 3/4 TEAE eczema” value [2] was 10% and the “Grade 3/4 TEAE increased blood CPK” value [2] was 35%. The “Grade 3/4 TEAE increased blood creatine phosphokinase (CPK)” value [2] was 48%, the “grade of the majority of TEAEs” value [2] was “grade 1 or 2” and the “onset of the majority of the most severe events” value [2] was no more than 12 months. For the same compound, the tolerability [2] was “well-tolerated”, the “tolerability, longer follow-up” value [2] was “continued to be well tolerated with a manageable safety profile” and the “treatment discontinuation due to TEAEs” value [2] was 9%.

— patent US20260048052A1, “METHODS OF TREATING TENOSYNOVIAL GIANT CELL TUMORS” (Deciphera Pharmaceuticals, LLC, priority 2023, published 2026)
